From the NIST ThermoML archive (doi:10.1007/s10765-007-0223-x)
Numbers after ± are expanded uncertainties.

Tests used:
[1] = 101 kPa, Liquid; for speed of sound: Single path-length method
[2] = xn = mol fraction of the nth substance listed; details: 101 kPa, Liquid, x2 = 0; for speed of sound: Single path-length method

SMILES: CC(C)(C)O [2-methylpropan-2-ol]
- mass density ([1]; 301.65 K): 777.762 ± 0.51 kg/m3
- speed of sound ([1]; 301.65 K): 1109 ± 2.2 m/s
- mass density ([1]; 303.15 K): 775.212 ± 0.51 kg/m3
- speed of sound ([1]; 303.15 K): 1099 ± 2.1 m/s
- mass density ([1]; 305.65 K): 772.623 ± 0.51 kg/m3
- speed of sound ([1]; 305.65 K): 1088.3 ± 2.1 m/s
- mass density ([1]; 308.15 K): 770.015 ± 0.52 kg/m3
- speed of sound ([1]; 308.15 K): 1077.7 ± 2.1 m/s
- mass density ([1]; 310.65 K): 767.391 ± 0.52 kg/m3
- speed of sound ([1]; 310.65 K): 1067.2 ± 2.1 m/s
- mass density ([1]; 313.15 K): 764.739 ± 0.52 kg/m3
- speed of sound ([1]; 313.15 K): 1056.7 ± 2.1 m/s
- mass density ([1]; 315.65 K): 762.054 ± 0.53 kg/m3
- speed of sound ([1]; 315.65 K): 1046.1 ± 2.1 m/s
- mass density ([1]; 318.15 K): 759.355 ± 0.53 kg/m3
- speed of sound ([1]; 318.15 K): 1035.7 ± 2.1 m/s
- mass density ([1]; 320.65 K): 756.633 ± 0.54 kg/m3
- speed of sound ([1]; 320.65 K): 1025.2 ± 2.1 m/s
- mass density ([1]; 323.15 K): 753.891 ± 0.54 kg/m3
- speed of sound ([1]; 323.15 K): 1014.8 ± 2.1 m/s

SMILES: CCc1ccccc1 [ethylbenzene]
- mass density ([1]; 288.15 K): 871.245 ± 0.36 kg/m3
- speed of sound ([1]; 288.15 K): 1360.7 ± 2.1 m/s
- mass density ([1]; 290.65 K): 869.052 ± 0.37 kg/m3
- speed of sound ([1]; 290.65 K): 1349.9 ± 2.1 m/s
- mass density ([1]; 293.15 K): 866.856 ± 0.37 kg/m3
- speed of sound ([1]; 293.15 K): 1339.4 ± 2.1 m/s
- mass density ([1]; 295.65 K): 864.66 ± 0.37 kg/m3
- speed of sound ([1]; 295.65 K): 1328.9 ± 2.1 m/s
- mass density ([1]; 298.15 K): 862.459 ± 0.38 kg/m3
- speed of sound ([1]; 298.15 K): 1318.4 ± 2.1 m/s
- mass density ([1]; 300.65 K): 860.256 ± 0.38 kg/m3
- speed of sound ([1]; 300.65 K): 1307.9 ± 2.1 m/s
- mass density ([1]; 303.15 K): 858.047 ± 0.38 kg/m3
- speed of sound ([1]; 303.15 K): 1297.5 ± 2.1 m/s
- mass density ([1]; 305.65 K): 855.837 ± 0.39 kg/m3
- speed of sound ([1]; 305.65 K): 1287.1 ± 2.1 m/s
- mass density ([1]; 308.15 K): 853.622 ± 0.39 kg/m3
- speed of sound ([1]; 308.15 K): 1276.8 ± 2.1 m/s
- mass density ([1]; 310.65 K): 851.407 ± 0.39 kg/m3
- speed of sound ([1]; 310.65 K): 1266.5 ± 2.1 m/s
- mass density ([1]; 313.15 K): 849.186 ± 0.4 kg/m3
- speed of sound ([1]; 313.15 K): 1256.3 ± 2.1 m/s
- mass density ([1]; 315.65 K): 846.964 ± 0.4 kg/m3
- speed of sound ([1]; 315.65 K): 1246.1 ± 2.1 m/s
- mass density ([1]; 318.15 K): 844.741 ± 0.4 kg/m3
- speed of sound ([1]; 318.15 K): 1236.1 ± 2.1 m/s
- mass density ([1]; 320.65 K): 842.518 ± 0.41 kg/m3
- speed of sound ([1]; 320.65 K): 1226.1 ± 2.1 m/s
- mass density ([1]; 323.15 K): 840.306 ± 0.41 kg/m3
- speed of sound ([1]; 323.15 K): 1216.3 ± 2.1 m/s

SMILES: Cc1ccccc1 [toluene] + COC(C)(C)C
- speed of sound ([2]; 288.15 K): 1347.5 ± 2.1 m/s
- mass density ([2]; 288.15 K): 871.457 ± 0.36 kg/m3
- speed of sound ([2]; 290.65 K): 1336.3 ± 2.1 m/s
- mass density ([2]; 290.65 K): 869.144 ± 0.37 kg/m3
- speed of sound ([2]; 293.15 K): 1325.3 ± 2.1 m/s
- mass density ([2]; 293.15 K): 866.823 ± 0.37 kg/m3
- speed of sound ([2]; 295.65 K): 1314.3 ± 2.1 m/s
- mass density ([2]; 295.65 K): 864.5 ± 0.38 kg/m3
- speed of sound ([2]; 298.15 K): 1303.4 ± 2.1 m/s
- mass density ([2]; 298.15 K): 862.173 ± 0.38 kg/m3
- speed of sound ([2]; 300.65 K): 1292.6 ± 2.1 m/s
- mass density ([2]; 300.65 K): 859.845 ± 0.38 kg/m3
- speed of sound ([2]; 303.15 K): 1281.9 ± 2.1 m/s
- mass density ([2]; 303.15 K): 857.513 ± 0.39 kg/m3
- speed of sound ([2]; 305.65 K): 1271.2 ± 2.1 m/s
- mass density ([2]; 305.65 K): 855.175 ± 0.39 kg/m3
- speed of sound ([2]; 308.15 K): 1260.5 ± 2.1 m/s
- mass density ([2]; 308.15 K): 852.838 ± 0.39 kg/m3
- speed of sound ([2]; 310.65 K): 1249.8 ± 2.1 m/s
- mass density ([2]; 310.65 K): 850.494 ± 0.4 kg/m3
- speed of sound ([2]; 313.15 K): 1239.2 ± 2.1 m/s
- mass density ([2]; 313.15 K): 848.146 ± 0.4 kg/m3
- speed of sound ([2]; 315.65 K): 1228.6 ± 2.1 m/s
- mass density ([2]; 315.65 K): 845.794 ± 0.4 kg/m3
- speed of sound ([2]; 318.15 K): 1218 ± 2.1 m/s
- mass density ([2]; 318.15 K): 843.437 ± 0.41 kg/m3
- speed of sound ([2]; 320.65 K): 1207.3 ± 2.1 m/s
- mass density ([2]; 320.65 K): 841.075 ± 0.41 kg/m3
- speed of sound ([2]; 323.15 K): 1196.6 ± 2.1 m/s
- mass density ([2]; 323.15 K): 838.706 ± 0.41 kg/m3

SMILES: CC(C)CC(C)(C)C [2,2,4-trimethylpentane]
- mass density ([1]; 288.15 K): 695.948 ± 0.62 kg/m3
- speed of sound ([1]; 288.15 K): 1124.3 ± 2.1 m/s
- mass density ([1]; 290.65 K): 693.91 ± 0.63 kg/m3
- speed of sound ([1]; 290.65 K): 1113.8 ± 2.1 m/s
- mass density ([1]; 293.15 K): 691.861 ± 0.63 kg/m3
- speed of sound ([1]; 293.15 K): 1103.3 ± 2.1 m/s
- mass density ([1]; 295.65 K): 689.809 ± 0.63 kg/m3
- speed of sound ([1]; 295.65 K): 1092.7 ± 2.1 m/s
- mass density ([1]; 298.15 K): 687.749 ± 0.64 kg/m3
- speed of sound ([1]; 298.15 K): 1082.2 ± 2.1 m/s
- mass density ([1]; 300.65 K): 685.687 ± 0.64 kg/m3
- speed of sound ([1]; 300.65 K): 1071.7 ± 2.1 m/s
- mass density ([1]; 303.15 K): 683.618 ± 0.64 kg/m3
- speed of sound ([1]; 303.15 K): 1061.3 ± 2.1 m/s
- mass density ([1]; 305.65 K): 681.542 ± 0.65 kg/m3
- speed of sound ([1]; 305.65 K): 1050.9 ± 2.1 m/s
- mass density ([1]; 308.15 K): 679.459 ± 0.65 kg/m3
- speed of sound ([1]; 308.15 K): 1040.5 ± 2.1 m/s
- mass density ([1]; 310.65 K): 677.373 ± 0.65 kg/m3
- speed of sound ([1]; 310.65 K): 1030.2 ± 2.1 m/s
- mass density ([1]; 313.15 K): 675.278 ± 0.66 kg/m3
- speed of sound ([1]; 313.15 K): 1019.9 ± 2.1 m/s
- mass density ([1]; 315.65 K): 673.177 ± 0.66 kg/m3
- speed of sound ([1]; 315.65 K): 1009.7 ± 2.1 m/s
- mass density ([1]; 318.15 K): 671.069 ± 0.66 kg/m3
- speed of sound ([1]; 318.15 K): 999.53 ± 2.1 m/s
- mass density ([1]; 320.65 K): 668.954 ± 0.67 kg/m3
- speed of sound ([1]; 320.65 K): 989.37 ± 2.1 m/s
- mass density ([1]; 323.15 K): 666.832 ± 0.67 kg/m3
- speed of sound ([1]; 323.15 K): 979.25 ± 2.1 m/s

SMILES: CC(C)(C)O [2-methylpropan-2-ol] + COC(C)(C)C
- speed of sound ([2]; 301.65 K): 1109 ± 2.2 m/s
- mass density ([2]; 301.65 K): 777.762 ± 0.51 kg/m3
- speed of sound ([2]; 303.15 K): 1099 ± 2.1 m/s
- mass density ([2]; 303.15 K): 775.212 ± 0.51 kg/m3
- speed of sound ([2]; 305.65 K): 1088.3 ± 2.1 m/s
- mass density ([2]; 305.65 K): 772.623 ± 0.51 kg/m3
- speed of sound ([2]; 308.15 K): 1077.7 ± 2.1 m/s
- mass density ([2]; 308.15 K): 770.015 ± 0.52 kg/m3
- speed of sound ([2]; 310.65 K): 1067.2 ± 2.1 m/s
- mass density ([2]; 310.65 K): 767.391 ± 0.52 kg/m3
- speed of sound ([2]; 313.15 K): 1056.7 ± 2.1 m/s
- mass density ([2]; 313.15 K): 764.739 ± 0.52 kg/m3
- speed of sound ([2]; 315.65 K): 1046.1 ± 2.1 m/s
- mass density ([2]; 315.65 K): 762.054 ± 0.53 kg/m3
- speed of sound ([2]; 318.15 K): 1035.7 ± 2.1 m/s
- mass density ([2]; 318.15 K): 759.355 ± 0.53 kg/m3
- speed of sound ([2]; 320.65 K): 1025.2 ± 2.1 m/s
- mass density ([2]; 320.65 K): 756.633 ± 0.54 kg/m3
- speed of sound ([2]; 323.15 K): 1014.8 ± 2.1 m/s
- mass density ([2]; 323.15 K): 753.891 ± 0.54 kg/m3

SMILES: c1ccccc1 [benzene] + COC(C)(C)C
- speed of sound ([2]; 288.15 K): 1345.5 ± 2.1 m/s
- mass density ([2]; 288.15 K): 884.183 ± 0.35 kg/m3
- speed of sound ([2]; 290.65 K): 1333.4 ± 2.1 m/s
- mass density ([2]; 290.65 K): 881.521 ± 0.35 kg/m3
- speed of sound ([2]; 293.15 K): 1321.6 ± 2.1 m/s
- mass density ([2]; 293.15 K): 878.856 ± 0.35 kg/m3
- speed of sound ([2]; 295.65 K): 1309.9 ± 2.1 m/s
- mass density ([2]; 295.65 K): 876.19 ± 0.36 kg/m3
- speed of sound ([2]; 298.15 K): 1298.3 ± 2.1 m/s
- mass density ([2]; 298.15 K): 873.52 ± 0.36 kg/m3
- speed of sound ([2]; 300.65 K): 1286.7 ± 2.1 m/s
- mass density ([2]; 300.65 K): 870.847 ± 0.37 kg/m3
- speed of sound ([2]; 303.15 K): 1275.1 ± 2.1 m/s
- mass density ([2]; 303.15 K): 868.172 ± 0.37 kg/m3
- speed of sound ([2]; 305.65 K): 1263.6 ± 2.1 m/s
- mass density ([2]; 305.65 K): 865.49 ± 0.37 kg/m3
- speed of sound ([2]; 308.15 K): 1252.1 ± 2.1 m/s
- mass density ([2]; 308.15 K): 862.805 ± 0.38 kg/m3
- speed of sound ([2]; 310.65 K): 1240.7 ± 2.1 m/s
- mass density ([2]; 310.65 K): 860.118 ± 0.38 kg/m3
- speed of sound ([2]; 313.15 K): 1229.3 ± 2.1 m/s
- mass density ([2]; 313.15 K): 857.425 ± 0.39 kg/m3
- speed of sound ([2]; 315.65 K): 1217.9 ± 2.1 m/s
- mass density ([2]; 315.65 K): 854.73 ± 0.39 kg/m3
- speed of sound ([2]; 318.15 K): 1206.7 ± 2.1 m/s
- mass density ([2]; 318.15 K): 852.032 ± 0.39 kg/m3
- speed of sound ([2]; 320.65 K): 1195.5 ± 2.1 m/s
- mass density ([2]; 320.65 K): 849.331 ± 0.4 kg/m3
- speed of sound ([2]; 323.15 K): 1184.6 ± 2.1 m/s
- mass density ([2]; 323.15 K): 846.641 ± 0.4 kg/m3
